Experimental data: patent US9422263B2, “Fluoro-substituted 3,5-dicyano-4-(1H-indazol-5-yl)-2,6-dimethyl-1,4-dihydropyridine derivatives and methods of use thereof” (BAYER PHARMA AKTIENGESELLSCHAFT, priority 2009, dated 2016)

How the values were obtained:
[1] = Caco-2 permeability assay; format: in vitro ADME; conditions: human, apical to basolateral, 2 h at 37° C., Table 4, read-out: Caco-2 permeability PappA-B
Excerpt: Caco-2 Permeability Assay:
The in vitro permeation of a test compound across a Caco-2 cell monolayer is a well-established assay system to predict the permeability from the gastro-intestinal tract [cf. P. Artursson and J. Karlsson: Correlation between oral drug absorption in humans and apparent drug permeability coefficients in human intestinal epithelial (Caco-2) cells, Biochem. Biophys. 175 (3), 880-885 (1991)]. The permeability of the compounds of the present invention in such Caco-2 cells was determined as described below:
Human caco-2 cells (ACC No. 169, DSMZ, German Collection of Microorganisms and Cell Cultures, Braunschweig, Germany) are seeded on 24-well insert plates and are allowed to grow for 14-16 days. For permeability studies, the test compounds are dissolved in DMSO and diluted to the final test concentration of 2 μM with transport buffer [Hanks' Buffered Salt Solution, Gibco/Invitrogen, further supplemented with glucose (final concentration 19.9 mM) and HEPES (final concentration 9.8 mM)]. For determination of the apical to basolateral permeability (PappA-B), the test compound solution is added to the apical side of the cell monolayer and transport buffer to the basolateral side of the monolayer; for determination of the basolateral to apical permeability (PappB-A), the test compound solution is added to the basolateral side of the cell monolayer and transport buffer to the apical side of the monolayer. Samples are taken from the donor compartment at the beginning of the experiment to confirm mass balance. After an incubation of 2 h at 37° C., samples are taken from both compartments. Samples are analyzed by LC-MS/MS, and the apparent permeability coefficients are calculated. Lucifer Yellow permeability is assayed for each cell monolayer to ensure cell monolayer integrity, and the permeability of Atenolol (low permeability marker) and Sulfasalazine (marker for active excretion) is determined for each batch as quality control.

[2] = molecular target: recombinant kinase domain of the human c-Met (amino acids 960-1390) (Homo sapiens (Human), UniProt P08581); assay: c-Met receptor tyrosine kinase homogeneous time-resolved fluorescence assay (alternative format); format: biochemical; conditions: HTRF format; ATP 10 μM
Excerpt: c-Met Receptor Tyrosine Kinase Homogeneous Time-Resolved Fluorescence Assay (Alternative Format):
The N-terminally His6-tagged recombinant kinase domain of the human c-Met (amino acids 960-1390), expressed in insect cells (SF21) and purified by Ni-NTA affinity chromatography and consecutive size exclusion chromatography (Superdex 200), is used. Alternatively, commercially available c-Met (Millipore) can be used. As substrate for the kinase reaction, the biotinylated poly-Glu, Tyr (4:1) copolymer (#61GTOBLC, Cis Biointernational, Marcoule, France) is used.
For the assay, […] of a 100-fold concentrated solution of the test compound in DMSO is pipetted into a black low-volume 384-well microtiter plate (Greiner Bio-One, Frickenhausen, Germany). 2 μL of a solution of c-Met in assay buffer [25 mM Hepes/NaOH, pH 7.5; 5 mM MgCl2; 5 mM MnCl2; 2 mM dithiothreitol; 0.1% (v/v) Tween 20 (Sigma); 0.1% (w/v) bovine serum albumin] are added, and the mixture is incubated for 15 min at 22° C. to allow pre-binding of the test compound to the enzyme before the start of the kinase reaction. Then, the kinase reaction is started by the addition of 3 μL of a solution of adenosine triphosphate (ATP, 16.7 μM; final concentration in the 5 μL assay volume is 10 μM) and substrate (2.27 μg/mL, final concentration in the 5 μL assay volume is 1.36 μg/mL ˜30 nM) in assay buffer, and the resulting mixture is incubated for a reaction time of 30 min at 22° C. The concentration of c-Met in the assay is adjusted depending on the activity of the enzyme lot and is appropriately chosen to have the assay in the linear range; typical enzyme concentrations are in the range of about 0.03 nM (final concentration in the 5 μL assay volume). The reaction is stopped by the addition of 5 μL of a solution of HTRF detection reagents [40 nM streptavidine-X Lent and 2.4 nM PT66-Eu-chelate, an europium-chelate labelled anti-phosphotyrosine antibody (Perkin-Elmer)] in an aqueous EDTA solution [100 mM EDTA, 0.2% (w/v) bovine serum albumin in 50 mM HEPES/NaOH, pH 7.5].
The resulting mixture is incubated for 1 h at 22° C. to allow the binding of the biotinylated phosphorylated peptide to the streptavidine-XLent and the PT66-Eu-chelate. Subsequently, the amount of phosphorylated substrate is evaluated by measurement of the resonance energy transfer from the PT66-Eu-chelate to the streptavidine-XLent. Therefore, the fluorescence emissions at 620 nm and 665 nm after excitation at 350 nm are measured in an HTRF reader, e.g. Rubystar (BMG Lab-technologies, Offenburg, Germany) or Viewlux (Perkin-Elmer). The ratio of the emissions at 665 nm and at […] is taken as the measure for the amount of phosphorylated substrate. The data are normalised (enzyme reaction without inhibitor=0% inhibition; all other assay components but no enzyme=100% inhibition).

[3] = molecular target: Recombinant human c-Met protein (Homo sapiens (Human), UniProt P08581); assay: c-Met receptor tyrosine kinase activity assay (NADH read-out); format: biochemical; conditions: ATP 30 μM, c-Met 30 nM
Procedure: c-Met Receptor Tyrosine Kinase Activity Assay (NADH Read-Out):
Recombinant human c-Met protein (Invitrogen, Carlsbad, Calif., USA) is used. As substrate for the kinase reaction the peptide KKKSPGEYVNIEFG (JPT, Germany) is used. For the assay, 1 μL of a 51-fold concentrated solution of the test compound in DMSO is pipetted into a white 384-well microtiter plate (Greiner Bio-One, Frickenhausen, Germany). 25 μL of a solution of c-Met (final concentration 30 nM) and pyruvate kinase/lactate dehydrogenase (Roche Diagnostics, Mannheim, Germany; final concentration 8 mg/L) in assay buffer [3-(N-morpholino)propanesulfonic acid (MOPS), 50 mM, pH 7; MgCl2, 10 mM; bovine serum albumin (BSA), 0.01%; Triton X 100, 0.01%; DTT, 2 mM] are added, and the mixture is incubated for 5 min at room temperature. Then, the kinase reaction is started by the addition of 25 μL of a solution of adenosine triphosphate (ATP, final concentration 30 μM), substrate (final concentration 100 μM), nicotinamide adenine dinucleo-tide (NADH, final concentration 50 μM) and dithiothreitol (DTT, final concentration 2 mM) in assay buffer, and the resulting mixture is incubated for a reaction time of 100 min at 32° C.
Subsequently, the amount of phosphorylated substrate is evaluated by measurement of the decrease of NADH fluorescence. Therefore, the fluorescence emissions at 465 nm after excitation at 340 nm is measured in a fluorescence reader, e.g. Tecan Ultra (Tecan, Männedorf, Switzerland). The data are normalised (enzyme reaction without inhibitor=0% inhibition; all other assay components but no enzyme=100% inhibition).

Sequence of recombinant kinase domain of the human c-Met (amino acids 960-1390) (P08581 960-1390): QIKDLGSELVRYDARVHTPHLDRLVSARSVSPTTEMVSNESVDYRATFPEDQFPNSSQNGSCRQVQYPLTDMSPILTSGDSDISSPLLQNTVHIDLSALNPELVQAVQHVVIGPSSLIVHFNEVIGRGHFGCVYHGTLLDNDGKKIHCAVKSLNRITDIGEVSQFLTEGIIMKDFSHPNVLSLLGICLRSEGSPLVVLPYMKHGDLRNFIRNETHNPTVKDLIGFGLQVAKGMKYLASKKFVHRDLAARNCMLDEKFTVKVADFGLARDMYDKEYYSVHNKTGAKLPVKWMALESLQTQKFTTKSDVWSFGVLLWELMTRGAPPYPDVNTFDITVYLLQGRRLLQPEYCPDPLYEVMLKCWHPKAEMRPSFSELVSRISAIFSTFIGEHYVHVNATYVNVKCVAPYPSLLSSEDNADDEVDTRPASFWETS
Sequence of Recombinant human c-Met protein (P08581 25-1390): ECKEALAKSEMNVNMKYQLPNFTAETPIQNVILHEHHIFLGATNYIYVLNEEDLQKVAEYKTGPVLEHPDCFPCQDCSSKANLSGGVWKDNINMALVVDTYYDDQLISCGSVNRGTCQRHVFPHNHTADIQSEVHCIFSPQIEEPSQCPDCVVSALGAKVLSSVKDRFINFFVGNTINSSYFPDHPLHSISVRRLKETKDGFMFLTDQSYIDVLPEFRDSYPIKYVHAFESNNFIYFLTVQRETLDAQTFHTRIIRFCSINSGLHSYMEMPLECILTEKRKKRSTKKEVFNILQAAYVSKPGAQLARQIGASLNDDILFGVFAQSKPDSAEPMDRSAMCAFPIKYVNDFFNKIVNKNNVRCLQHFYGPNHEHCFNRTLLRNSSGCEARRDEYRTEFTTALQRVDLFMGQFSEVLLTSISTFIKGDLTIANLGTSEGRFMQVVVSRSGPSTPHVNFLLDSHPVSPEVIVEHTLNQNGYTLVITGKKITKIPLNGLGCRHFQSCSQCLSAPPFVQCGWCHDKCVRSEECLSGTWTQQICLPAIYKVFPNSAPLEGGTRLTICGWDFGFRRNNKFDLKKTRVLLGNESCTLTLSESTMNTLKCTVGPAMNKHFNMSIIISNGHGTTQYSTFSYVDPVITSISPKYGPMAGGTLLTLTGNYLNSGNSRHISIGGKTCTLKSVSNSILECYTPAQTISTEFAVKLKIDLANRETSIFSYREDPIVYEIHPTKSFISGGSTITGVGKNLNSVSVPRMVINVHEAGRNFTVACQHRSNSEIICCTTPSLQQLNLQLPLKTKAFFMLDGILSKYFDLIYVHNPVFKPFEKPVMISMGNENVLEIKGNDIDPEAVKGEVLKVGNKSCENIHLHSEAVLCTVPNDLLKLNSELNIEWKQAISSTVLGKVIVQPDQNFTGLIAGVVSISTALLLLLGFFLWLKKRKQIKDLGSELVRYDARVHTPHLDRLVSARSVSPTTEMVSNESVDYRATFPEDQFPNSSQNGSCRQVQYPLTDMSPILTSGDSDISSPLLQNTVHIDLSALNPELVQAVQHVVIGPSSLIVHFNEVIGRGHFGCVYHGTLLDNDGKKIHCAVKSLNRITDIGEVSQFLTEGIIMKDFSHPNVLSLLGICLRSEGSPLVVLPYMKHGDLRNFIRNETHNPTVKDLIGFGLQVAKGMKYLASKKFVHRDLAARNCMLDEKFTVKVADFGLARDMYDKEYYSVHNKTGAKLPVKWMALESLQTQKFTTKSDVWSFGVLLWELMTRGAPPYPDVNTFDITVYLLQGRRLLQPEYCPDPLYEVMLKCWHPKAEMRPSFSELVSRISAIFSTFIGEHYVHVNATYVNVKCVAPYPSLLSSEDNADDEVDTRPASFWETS

Papp at 2 h, 2 μM [1] [×10⁻⁶ cm/s] | IC50 [2] [nM] | IC50 [3] [nM] | Structure (SMILES)
22 | 3 | 21 | CCC(F)(F)C1=C(C#N)C(c2ccc3[nH]nc(C)c3c2)C(C#N)=C(C)N1 (racemic) [Example 30, rac-2-(1,1-Difluoropropyl)-6-methyl-4-(3-methyl-1H-indazol-5-yl)-1,4-dihydropyridine-3,5-dicarbonitrile]
– | 2 | 6 | CC1=C(C#N)C(c2ccc3[nH]nc(C)c3c2)C(C#N)=C(C(F)F)N1 (single isomer, unassigned) [Example 2, 2-(Difluoromethyl)-6-methyl-4-(3-methyl-1H-indazol-5-yl)-1,4-dihydropyridine-3,5-dicarbonitrile]
